Reference: patent publication US20240246916A1, “7-NITRO-8-HYDROXYQUINOLINE DERIVATIVES, PREPARATION METHOD THEREFORE AND MEDICAL USE THEREOF” (Jiangsu Yahong Meditech Co., Ltd., priority 2021, published 2024)
Values after ≈ are worked out from the molar mass of the structure shown.

Experiments:
Assay type in all cases: cell-based
[1] = system: Endothelial cell line HUVEC; experiment: Inhibitory activity on cells, CellTiter-Glo viability, HUVEC; settings: Homo sapiens, 72 hours treatment
Method in brief: (§1)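 HUVEC seeded at 2000, UM-UC-3 and RM-1 at 3000, LNCaP at 5000 cells/well, each in its own medium, 24 h before dosing. Compounds: 8-point 2.5-fold dilutions from 100 μmol, 72 h at 37 °C, 5% CO2. CellTiter-Glo luminescence; IC50 from growth-inhibition curves.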

[2] = system: Bladder cancer cell line UM-UC-3; experiment: Inhibitory activity on cancer cells, CellTiter-Glo viability, UM-UC-3; settings: Homo sapiens, UMUC3, 72 hours treatment
Method in brief: as §1

[3] = system: Prostate cancer cell line LNcaP; experiment: Inhibitory activity on cancer cells, CellTiter-Glo viability, LNcaP; settings: Homo sapiens, 72 hours treatment
Method in brief: as §1

[4] = system: Mouse prostate cancer cell line RM1; experiment: Inhibitory activity on cancer cells, CellTiter-Glo viability, RM1; settings: 72 hours treatment
Method in brief: as §1

[5] = system: Escherichia coli (carbapenem-resistant clinical isolate; ATCC25922); experiment: MIC by micro broth dilution (CLSI), Escherichia coli; settings: for MIC50 / MIC90: ATCC25922, Clinical strain; for MIC50 / MIC90 / MIC: Escherichia coli; for MIC50: read-out: MIC50; for MIC90: read-out: MIC90; for MIC: Standard strain ATCC25922, read-out: MIC
Method in brief: (§2)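 In cation-adjusted Mueller-Hinton broth, 10^5 CFU/mL of bacteria met compound concentrations of 128 to 0.06 mg/L. Plates sat in air at 35±2° C for 20 hours.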

[6] = system: Acinetobacter baumannii (carbapenem-resistant clinical isolates; ATCC19606); experiment: MIC by micro broth dilution (CLSI), Acinetobacter baumannii; settings: for MIC50 / MIC90: ATCC19606, Clinical strain; for MIC50 / MIC90 / MIC: Acinetobacter baumannii; for MIC50: read-out: MIC50; for MIC90: read-out: MIC90; for MIC: Standard strain ATCC19606, read-out: MIC
Method in brief: as §2

[7] = system: Staphylococcus aureus (methicillin-resistant and sensitive clinical isolates; ATCC29213); experiment: MIC by micro broth dilution (CLSI), Staphylococcus aureus; settings: for MIC50 / MIC90: Clinical strain; for MIC50: read-out: MIC50; for MIC90: read-out: MIC90; for MIC: Standard strain ATCC29213, read-out: MIC
Method in brief: as §2

SMILES | IC50 [2] [µM] | IC50 [3] [nM] | IC50 [4] [µM] | MIC50 [5] [µg/mL] | MIC90 [5] [µg/mL] | MIC [5] [µg/mL] | MIC50 [6] [µg/mL] | MIC90 [6] [µg/mL] | MIC [6] [µg/mL] | MIC50 [7] [µg/mL] | MIC90 [7] [µg/mL] | MIC [7] [µg/mL] | IC50 [1] [nM] | inhibitory effect against Escherichia coli compared with the reference drug nitroxoline ([5]; MIC comparison) | inhibitory effect against Acinetobacter baumannii compared with the reference drug nitroxoline ([6]; MIC comparison)
O=[N+]([O-])c1cc(Cl)c2c(OC3CCCC3)ccnc2c1O [Example 59, 5-Chloro-4-(cyclopentyloxy)-7-nitroquinolin-8-ol] | 1.49 | 1500 | 1.46 | 128 (≈ 415 µM) | 128 (≈ 415 µM) | 128 (≈ 415 µM) | > 128 | > 128 | 128 (≈ 415 µM) | 16 (≈ 51.8 µM) | 16 (≈ 51.8 µM) | 16 (≈ 51.8 µM) | 780 |  | 
O=[N+]([O-])c1ccc2c(C(F)(F)F)ccnc2c1O [Example 62, 7-Nitro-4-trifluoromethylquinolin-8-ol] | 11.2 | 2490 | 4.82 | 8 (≈ 31 µM) | 8 (≈ 31 µM) | 4 (≈ 15.5 µM) | 4 (≈ 15.5 µM) | 4 (≈ 15.5 µM) | 4 (≈ 15.5 µM) | 2 (≈ 7.75 µM) | 4 (≈ 15.5 µM) | 2 (≈ 7.75 µM) | 3540 | comparable to that of the reference drug nitroxoline | 
O=[N+]([O-])c1cc(Cl)c2c(C3CCCCC3)ccnc2c1O [Example 64, 5-Chloro-4-cyclohexyl-7-nitroquinolin-8-ol] | 1.24 | 220 | 0.86 | > 128 | > 128 | > 128 | > 128 | > 128 | > 128 | 0.5 (≈ 1.63 µM) | 1 (≈ 3.26 µM) | 0.5 (≈ 1.63 µM) | 440 |  | 
CC1CCCN(c2ccnc3c(O)c([N+](=O)[O-])cc(Cl)c23)C1 (centres unmarked) [Example 66, 5-Chloro-4-(3-methylpiperidin-1-yl)-7-nitroquinolin-8-ol] | 5.43 | 1360 | 4.29 | > 128 | > 128 | > 128 | > 128 | > 128 | > 128 | 1 (≈ 3.11 µM) | 1 (≈ 3.11 µM) | 1 (≈ 3.11 µM) | 4540 |  | 
Cl.O=[N+]([O-])c1cc(Cl)c2c(OCc3ccccc3)ccnc2c1O [Example 67, 4-(benzyloxy)-5-chloro-7-nitroquinolin-8-ol hydrochloride] | 9.28 | 8680 | 13.2 | > 128 | > 128 | > 128 | > 128 | > 128 | > 128 | 1 | 64 | 2 | 3230 |  | 
O=[N+]([O-])c1cc(F)c2c(Cl)ccnc2c1O [Example 68, 4-Chloro-5-fluoro-7-nitroquinolin-8-ol] | 17.5 | 5380 | 5.19 | 8 (≈ 33 µM) | 32 (≈ 132 µM) | 8 (≈ 33 µM) | 4 (≈ 16.5 µM) | 8 (≈ 33 µM) | 2 (≈ 8.24 µM) | 2 (≈ 8.24 µM) | 4 (≈ 16.5 µM) | 4 (≈ 16.5 µM) | 10000 |  | comparable to that of the reference drug nitroxoline
O=[N+]([O-])c1cc(F)c2c(N3CCC(F)(F)CC3)ccnc2c1O [Example 69, 4-(4,4-Difluoropiperidin-1-yl)-5-fluoro-7-nitroquinolin-8-ol] | 4.81 | 1330 | 2.23 | > 128 | > 128 | > 128 | > 128 | > 128 | > 128 | 2 (≈ 6.11 µM) | 2 (≈ 6.11 µM) | 4 (≈ 12.2 µM) | 2670 |  | 
O=[N+]([O-])c1cc(F)c2c(N3CCC(C(F)(F)F)CC3)ccnc2c1O [Example 70, 5-Fluoro-7-nitro-4-(4-(trifluoromethyl)piperidin-1-yl)quinolin-8-ol] | 5.28 | 960 | 2.62 | > 128 | > 128 | > 128 | > 128 | > 128 | > 128 | 2 (≈ 5.57 µM) | 4 (≈ 11.1 µM) | 4 (≈ 11.1 µM) | 2780 |  | 

More lines, in order of falling IC50 [2], values ahead:

IC50 [2] [µM] | IC50 [3] [nM] | IC50 [4] [µM] | MIC50 [5] [µg/mL] | MIC90 [5] [µg/mL] | MIC [5] [µg/mL] | MIC50 [6] [µg/mL] | MIC90 [6] [µg/mL] | MIC [6] [µg/mL] | MIC50 [7] [µg/mL] | MIC90 [7] [µg/mL] | MIC [7] [µg/mL] | SMILES | IC50 [1] [nM] | inhibitory effect against Escherichia coli compared with the reference drug nitroxoline ([5]; MIC comparison) | inhibitory effect against Acinetobacter baumannii compared with the reference drug nitroxoline ([6]; MIC comparison)
52.8 | 47600 | 68.5 | > 128 | > 128 | > 128 | > 128 | > 128 | > 128 | 64 (≈ 199 µM) | 64 (≈ 199 µM) | 128 (≈ 398 µM) | O=C1CCN(c2ccnc3c(O)c([N+](=O)[O-])cc(Cl)c23)CC1 [Example 56, 1-(5-Chloro-8-hydroxy-7-nitroquinolin-4-yl)piperidin-4-one] | 32100 |  | 
5.29 | 5220 | 4.26 | > 128 | > 128 | > 128 | > 128 | > 128 | > 128 | 16 (≈ 59.6 µM) | 32 (≈ 119 µM) | 16 (≈ 59.6 µM) | CCOc1ccnc2c(O)c([N+](=O)[O-])cc(Cl)c12 [Example 61, 5-Chloro-4-ethoxy-7-nitroquinolin-8-ol] | 2580 |  | 
2.23 | 250 | 2.88 | > 128 | > 128 | > 128 | > 128 | > 128 | > 128 | 4 (≈ 11.6 µM) | 4 (≈ 11.6 µM) | 4 (≈ 11.6 µM) | O=[N+]([O-])c1cc(Cl)c2c(N3CCC(F)(F)CC3)ccnc2c1O [Example 55, 5-Chloro-4-(4,4-difluoropiperidin-1-yl)-7-nitroquinolin-8-ol] | 800 |  | 
1.42 | 250 | 1.62 | 32 | 64 | 64 | 128 | > 128 | 64 | 16 | 16 | 16 | COCCCOC1CCN(c2ccnc3c(O)c([N+](=O)[O-])cc(Cl)c23)CC1.Cl.Cl [Example 54, 5-chloro-4-(4-(3-methoxypropoxy)piperidin-1-yl)-7-nitroquinolin-8-ol dihydrochloride] | 500 |  | 
